From PMC10141604, “Small-Molecule Inhibition of Androgen Receptor Dimerization as a Strategy against Prostate Cancer” (ACS Central Science, 2023)

How the values were obtained:
[1] = test system: human gastric epithelial cell (GES-1); experiment: MTT cell viability assay, GES-1; format: cell-based; conditions: 72 h
Procedure: 3-(4,5-dimethythiazol-2-yl)-2,5-diphenyl-2-H-tetrazolium bromide (MTT) colorimetric assay was employed to investigate cell viability. Cells were seeded into 96-well plates with 2-5× 10^3 cells per well (5× 10^3 cells/well for LNCaP, 22RV1, NIH-3T3, GES-1, Chang, […]
NCI-H1299, U2OS, U87) for 1 day incubation at 37 °C. Then, the cells were treated with various concentrations of compounds (22.86 nM - 50 μM) and incubated for 72 h. Then, 10 μl MTT (5 mg/ml) was added into each well and incubated for 4 h. Afterwards, 100 μl of triplex 10% SDS-0.1% HCl-phosophate-buffered saline (PBS) solutions was added into each well and incubated for overnight. The absorbance at 570 nm was measured (Eon, Bioteck, Winooski, VT). […]

[2] = target: T1, MR (Homo sapiens, UniProt P08235); experiment: Luciferase reporter assay for MR (HEK293T cells); format: cell-based; conditions: 10 μM, 5 nM aldosterone
T1 construct: host or cells: HEK293T
T1 sequence (P08235 1-984): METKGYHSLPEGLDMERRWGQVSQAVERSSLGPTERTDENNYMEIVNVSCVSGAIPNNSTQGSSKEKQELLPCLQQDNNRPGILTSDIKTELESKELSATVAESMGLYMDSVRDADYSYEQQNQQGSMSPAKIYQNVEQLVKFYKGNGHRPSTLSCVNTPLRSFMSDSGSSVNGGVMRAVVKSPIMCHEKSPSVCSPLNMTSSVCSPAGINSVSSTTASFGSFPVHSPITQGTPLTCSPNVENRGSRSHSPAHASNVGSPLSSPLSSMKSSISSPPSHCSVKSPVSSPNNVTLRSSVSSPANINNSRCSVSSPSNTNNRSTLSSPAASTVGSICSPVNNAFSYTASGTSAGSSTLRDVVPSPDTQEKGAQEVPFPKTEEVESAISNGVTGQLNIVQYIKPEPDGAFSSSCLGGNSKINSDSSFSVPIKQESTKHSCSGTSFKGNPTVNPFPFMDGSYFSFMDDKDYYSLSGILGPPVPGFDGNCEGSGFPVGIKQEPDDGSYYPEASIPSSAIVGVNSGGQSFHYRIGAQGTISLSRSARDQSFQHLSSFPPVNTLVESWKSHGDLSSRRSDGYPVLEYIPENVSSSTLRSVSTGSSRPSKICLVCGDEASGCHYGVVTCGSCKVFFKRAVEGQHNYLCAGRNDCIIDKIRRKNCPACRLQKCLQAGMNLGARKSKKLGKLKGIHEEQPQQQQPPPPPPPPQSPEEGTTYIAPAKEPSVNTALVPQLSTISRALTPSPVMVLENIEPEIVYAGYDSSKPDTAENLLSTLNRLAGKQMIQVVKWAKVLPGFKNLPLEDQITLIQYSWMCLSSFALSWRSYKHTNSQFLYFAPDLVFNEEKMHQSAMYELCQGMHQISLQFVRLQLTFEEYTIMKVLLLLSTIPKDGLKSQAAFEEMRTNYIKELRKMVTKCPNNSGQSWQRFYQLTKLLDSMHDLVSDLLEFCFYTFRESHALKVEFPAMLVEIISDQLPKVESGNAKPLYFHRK
Procedure: Luciferase Reporter Assays for PR, GR, and MR
PC3, HeLa, and HEK293T cells were cultured using 5% CSS RPMI-1640, 5% CSS RPMI-1640 and 10% FBS DMEM media in 96-well plates for 24 h, respectively. For PR induction, PC3 (1 × 10^4 cells/well) were transfected with 50 ng pcDNA3-PRB (#89130, Addgene), 24 ng pGL4.36[luc2P MMTV Hygro] (Promega) and 5 ng Renilla using HG-TransGeneTM transfection reagent (#TG-10012, Genomeditech) for 4 h. For GR induction, Hela (1 × 10^4 cells/well) were transfected with 71 ng pCMV -GR11 (#89105, Addgene), 24 ng pGL4.36[luc2P MMTV Hygro] (Promega) and 5 ng Renilla using lip3000 transfection reagent (#L3000075, Thermofisher) for 24 h. For MR induction, HEK293T (1 × 10^4 cells/well) were transfected with 71 ng pCMV-MR gifted by Liu et al. 28, 24 ng of pGL4.36[luc2P MMTV Hygro] (Promega) and 5 ng Renilla using lip3000 transfec tion reagent for 24 h. For the antagonistic models, 10 nM /well progesterone for PC3 cells , 1 nM/well dexamethasone for HeLa, and 5 nM/well aldosterone for HEK293T cells were added to stimulate the cells. Meanwhile, each cell line was treated with a series concentration of compounds (0.4, 2, and 10 μM). For the agonistic models, the cells were directly treated with the compounds without any hormones. Endogenous hormones progesterone, dexamethasone, and aldosterone were considered as agonists for PR, GR, and MR, respectively. The luciferase activities were assessed using the Dual-Glo Luciferase system (#E1910, Promega). […]

[3] = test system: subcutaneous xenografts of LNCaP cells; experiment: LNCaP mouse xenograft study, intratumor injection; format: in vivo; conditions: 2.5 mg/kg/week; for tumor growth inhibition (TGI): LNCaP xenograft in CB17 SCID mice; for tumor volume and weight: versus vehicle
Procedure: The animal protocols were in accordance with the guidelines of the Animal Welfare Council of China, and were performed by KCBIO company (Chengdu, China). All animal use and studies were performed in compliance with all relevant ethical regulations, and were approved by the Institutional Animal Care and Use Committee (IACUC) at Kangcheng Biotechnology Co., Ltd, Sichuan, China (IACUC-202010-m-001). In brief, male CB17 SCID mice (6-8 weeks old) were housed at a constant room temperature and fed a standard rodent diet and allowed free access to water. LNCaP cells (1 × 107) suspended in 0.1 ml PBS were injected subcutaneously into the right flank of eac h CB17 SCID mice. Once tumor size reached an average tumor volume of 110 mm 3, the mice were randomized into three groups with 6 mice per group, and then intratumor injection […]
The tumor volumes were estimated by measuring length (L) and width (W) and […]
calculating volume (V= 0.5 × L × W2). Finally, the mice were sacrificed and the tumors were harvested for hematoxylin and eosin (H&E) staining. […]
Addgene), 24 ng pGL4.36[luc2P MMTV Hygro] […]
For the antagonistic models, 10 nM /well progesterone for PC3 cells , 1 nM/well dexamethasone for HeLa, and 5 nM/well aldosterone for HEK293T cells were added to stimulate the cells. Meanwhile, each cell line was treated with a series concentration of compounds (0.4, 2, and 10 μM). For the agonistic models, the cells were directly treated with the compounds without any hormones. […]
Luciferase system (#E1910, Promega).
Cell Cycle and Apoptosis for LNCaP cells […]
48 h incubation by Cell Cycle Staining Kit (#CCS012, MULTI SCIENCES) using […]

| Compound | cytotoxicity against GES-1 [1] | MR antagonistic activity [2] | tumor growth inhibition (TGI) [3] | tumor volume and weight [3] |
| --- | --- | --- | --- | --- |
| CC(=O)Cc1nsc(NC(=O)c2cc(-c3cccc(C(F)(F)F)c3)oc2C)n1 [Compound M17-B15] | negligible cytotoxicity | not observed | 83.59% | significantly inhibited |
| CNC(=O)c1ccc(N2C(=S)N(c3ccc(C#N)c(C(F)(F)F)c3)C(=O)C2(C)C)cc1F [Enz, enzalutamide, reference compound] | negligible cytotoxicity | not observed | 51.35% | significantly inhibited |
